Results from patent US9284283B2, “Macrocyclic compounds for modulating IL-17” (ENSEMBLE THERAPEUTICS CORPORATION, priority 2012, dated 2016).

Biological target: T1, biotinylated human IL-17 (binding to IL17R/Fc) (Homo sapiens, UniProt Q16552)
T1 construct: purchased R&D Systems 317-ILB (IL-17, biotinylated); 177-IR (IL17R/Fc)
T1 sequence (Q16552 20-155 limits assumed): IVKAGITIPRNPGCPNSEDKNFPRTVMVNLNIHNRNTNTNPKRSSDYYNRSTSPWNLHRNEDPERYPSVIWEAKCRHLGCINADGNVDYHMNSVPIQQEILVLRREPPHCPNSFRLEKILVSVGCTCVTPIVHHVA
Assay: IL-17 competition ELISA II (captured IL17R/Fc, biotinylated IL-17)
Method: In this version, a high binding 96-well plate (Costar #9018) was coated with 20 nM of goat anti-human IgG (KPL 01-10-02) in PBS, 100 μL/well, for 30 min at 37° C. followed by 5 min at 4° C. The plate was then washed in PBST (PBS/0.05% Tween-20) on a plate washer, (BioTek ELx450) then blocked with protein-free blocking buffer (Thermo Scientific #37573) in 250 μL/well for 30 min on a shaker at room temperature, and then washed again. IL17R/Fc (R&D Systems #177-IR; 10 nM in PBST, 100 μL/well) was then added to all wells. The plate was then incubated for 30 minutes at room temperature on the shaker.
While the receptor capture step was underway, compound dilutions were prepared in PBST to a concentration of 1 μM in 1.5 mL tubes. After the receptor capture step, the plate was washed and 50 μL PBST was added to the wells in row B down to row H. Then, 62.5 μL of the 1 μM compound dilutions were added to the wells of row A. From row A, 12.5 μL of the compound solution was removed and added to row B with mixing and this process of 5-fold dilutions was continued, by row, to row G. One of the wells in row A received only PBST (62.5 μL) and this dilution series served as the no competitor control. Then, going up from row G to row A, 50 μL of b-IL-17 (biotinylated human IL-17, R&D Systems #317-ILB; 20 nM) was added to all wells. Row H received 50 μL of PBST and served as the blank row, i.e., no compound and no b-IL-17. The plate was then incubated for 30 minutes at room temperature on the shaker.
After the wash, 100 μL Streptavidin-Horseradish Peroxidase (SA-HRP) (KPL #14-30-00) at 25 ng/mL in PBST was added to each well in the plate and the plate incubated for 30 minutes at room temperature followed by wash and 100 μL SureBlue™ TMB (KPL #52-00-03). After sufficient color development (approx 3-6 minutes), the reaction was fixed by the addition of 100 μL/well 0.5 N HCl and absorbance was measured at 450 nm on a BioTek Synergy 2 plate reader. The absorbances of ‘no competitor’ control and blank control should not exceed 1.5 A.U. and 0.06 A.U., respectively.
Data was processed using BioAssay Enterprise v10.1.4 (CambridgeSoft) software. Linear OD λ450 were plotted against log concentration (x) and fitted to a 4-parameter logistic equation. IC50 was calculated using positive ‘no competitor’ control data as an upper limit and blank control as a lower limit in each assay.

Structure (SMILES) | IC50 [µM]
CN1C(=O)CC2(CCCC2)CC(=O)NCCCCC#CCNC(=O)[C@H]1Cc1ccc(NC(=O)[C@H](Cc2ccccc2Cl)NC(=O)C2(c3ccc(F)cc3)CC2)cc1 [Compound 498] | 1 to 10
O=C(Cc1ccc(F)cc1)N[C@@H](Cc1ccccc1Cl)C(=O)Nc1ccc(C[C@H]2NC(=O)CC3(CCCC3)CC(=O)OCCCC/C=C/CNC2=O)cc1 [Compound 500] | < 0.1
O=C1CNC(=O)[C@@H](Cc2ccc(NC(=O)[C@H](Cc3ccccc3Cl)NCc3ccccc3)cc2)NC(=O)CC2(CCCC2)CC(=O)NCCCCCN1 [Compound 503] | 1 to 10
CN1C(=O)CC2(CCCC2)CC(=O)NCCOCCOCCNC(=O)[C@H]1Cc1ccc(NC(=O)[C@H](Cc2ccccc2Cl)NC(=O)C2(c3ccc(F)cc3)CC2)cc1 [Compound 504] | 0.1 to 1
CN1C(=O)CC2(CCCC2)CC(=O)NCCCCCCCCNC(=O)[C@H]1Cc1ccc(NC(=O)[C@H](Cc2ccccc2Cl)NC(=O)C2(c3ccc(F)cc3)CC2)cc1 [Compound 505] | 1 to 10
O=C1CC2(CCCC2)CC(=O)N[C@H](Cc2ccc(NC(=O)[C@H](Cc3ccccc3C(F)(F)F)NC(=O)C3(c4ccc(F)cc4)CC3)cc2)C(=O)NCCOCCOCCN1 [Compound 508] | 0.1 to 1
Cc1ccc(C[C@H](NC(=O)C2(c3ccc(F)cc3)CC2)C(=O)Nc2ccc(C[C@H]3NC(=O)CC4(CCCC4)CC(=O)N(C)CCCCCNC(=O)[C@@H](C)NC3=O)cc2)c(C)c1 [Compound 509] | 0.1 to 1
Cc1ccc(C[C@H](NC(=O)C2(c3ccc(F)cc3)CC2)C(=O)Nc2ccc(C[C@H]3NC(=O)CC4(CCCC4)CC(=O)NCCOCCOCCNC3=O)cc2)c(C)c1 [Compound 510] | 0.1 to 1
CN1C(=O)CC2(CCCC2)CC(=O)N[C@H](C(=O)O)CCCCNC(=O)[C@@H](C(C)(C)C)NC(=O)[C@H]1Cc1ccc(NC(=O)[C@H](Cc2ccccc2Cl)NC(=O)C2(c3ccc(F)cc3)CC2)cc1 [Compound 514] | 0.1 to 1
C[C@H]1NC(=O)[C@@H](Cc2ccc(NC(=O)[C@H](Cc3ccccc3Cl)NC(=O)Cc3ccc(F)cc3)cc2)N(C)C(=O)CC2(CCCC2)CC(=O)NCCCCCN(C)C1=O [Compound 518] | < 0.1
O=C1CNC(=O)[C@H](Cc2ccc(NC(=O)[C@H](Cc3ccccc3Cl)NC(=O)Cc3ccccc3)cc2)NC(=O)CC2(CCCC2)CC(=O)NCCCCCN1 [Compound 519] | < 0.1
C[C@H]1NC(=O)[C@@H](Cc2ccc(NC(=O)[C@H](Cc3ccccc3Cl)NC(=O)Cc3ccc(CO)cc3)cc2)NC(=O)CC2(CCCC2)CC(=O)NCc2cccc(c2)CNC1=O [Compound 520] | < 0.1
O=C1CC2(CCCC2)CC(=O)N[C@H](Cc2ccc(NC(=O)[C@H](Cc3ccccc3Cl)NC(=O)c3ccc(F)cc3)cc2)C(=O)NCCOCCOCCN1 [Compound 521] | < 0.1
CN1CCCCCN(C)C(=O)[C@@H](Cc2ccccn2)NC(=O)[C@@H](Cc2ccc(NC(=O)[C@H](Cc3ccccc3Cl)NC(=O)Cc3ccc(F)cc3)cc2)NC(=O)CC2(CCCC2)CC1=O [Compound 524] | < 0.1
C[C@H]1NC(=O)[C@@H](Cc2ccc(NC(=O)[C@H](Cc3ccccc3Cl)NC(=O)c3ccc(F)cc3)cc2)NC(=O)CC2(CCCC2)CC(=O)N(C)CCCCCN(C)C1=O [Compound 525] | < 0.1
O=C1CNC(=O)[C@@H](Cc2ccc(NC(=O)[C@@H](Cc3ccccc3Cl)NC(=O)Cc3ccccc3)cc2)NC(=O)CC2(CCCC2)CC(=O)NCCCCCN1 [Compound 526] | 0.1 to 1
NC(=O)CC[C@H]1NC(=O)[C@@H](Cc2ccc(NC(=O)[C@H](Cc3ccccc3Cl)NC(=O)C3(c4ccc(F)cc4)CC3)cc2)NC(=O)CC2(CCCC2)CC(=O)N[C@H](C(=O)O)CCCCNC1=O [Compound 527] | < 0.1
O=C1CC2(CCCC2)CC(=O)N[C@H](Cc2ccc(NC(=O)[C@H](Cc3ccc(F)cc3Cl)NC(=O)C(F)(F)c3ccccc3)cc2)C(=O)NCCOCCOCCN1 [Compound 530] | < 0.1
O=C1CC2(CCCC2)CC(=O)N[C@H](Cc2ccc(NC(=O)[C@H](Cc3ccccc3Cl)NC(=O)C(F)(F)c3ccccc3)cc2)C(=O)NCCN2CCN(CCN1)CC2 [Compound 531] | 0.1 to 1
O=C1CC2(CCCC2)CC(=O)N[C@H](Cc2ccc(NC(=O)[C@H](Cc3ccccc3Cl)NC(=O)Cc3ccc(F)cc3)cc2)C(=O)NCCN2CCN(CCN1)CC2 [Compound 532] | 0.1 to 1

Structure (SMILES) | IC50 [µM]
C[C@H]1NC(=O)[C@@H](Cc2ccc(NC(=O)[C@H](Cc3ccccc3Cl)NC(=O)C(F)(F)c3ccccc3)cc2)NC(=O)CC2(CCCC2)CC(=O)NCCN2CCN(CC2)C1=O [Compound 533] | 0.1 to 1
C[C@H]1NC(=O)[C@@H](Cc2ccc(NC(=O)[C@H](Cc3ccccc3Cl)NC(=O)Cc3ccc(F)cc3)cc2)NC(=O)CC2(CCCC2)CC(=O)NCCN2CCN(CC2)C1=O [Compound 534] | < 0.1
O=C1CC2(CCCC2)CC(=O)N[C@H](Cc2ccc(NC(=O)[C@H](Cc3ccccc3Cl)NC(=O)c3ccccc3O)cc2)C(=O)NCCOCCOCCN1 [Compound 537] | < 0.1
O=C1CC2(CCCC2)CC(=O)N[C@H](Cc2ccc(NC(=O)[C@H](Cc3ccccc3Cl)NC(=O)c3ccc(F)cc3O)cc2)C(=O)NCCOCCOCCN1 [Compound 538] | 0.1 to 1
C[C@H]1NC(=O)[C@@H](Cc2ccc(NC(=O)[C@H](Cc3ccccc3Cl)NC(=O)Cc3ccc(F)cc3)cc2)NC(=O)CC2(CCCC2)CC(=O)N2CCN(CCNC1=O)CC2 [Compound 541] | < 0.1
C[C@H]1NC(=O)[C@@H](Cc2ccc(NC(=O)[C@H](Cc3ccccc3Cl)NC(=O)C(F)(F)c3ccccc3)cc2)NC(=O)CC2(CCCC2)CC(=O)N2CCN(CCNC1=O)CC2 [Compound 542] | < 0.1
O=C1CC2(CCCC2)CC(=O)N[C@H](Cc2ccc(NC(=O)[C@H](Cc3ccccc3Cl)NC(=O)[C@@H](O)c3ccccc3)cc2)C(=O)NCCOCCOCCN1 [Compound 544] | < 0.1
O=C1CC2(CCCC2)CC(=O)N[C@H](Cc2ccc(NC(=O)[C@H](Cc3ccccc3Cl)NC(=O)[C@H](O)c3ccccc3)cc2)C(=O)NCCOCCOCCN1 [Compound 545] | < 0.1
O=C1CC2(CCCC2)CC(=O)N[C@H](Cc2ccc(NC(=O)[C@H](Cc3ccccc3Cl)NC(=O)[C@@H](O)c3ccccc3)cc2)C(=O)NCCCCCN1 [Compound 546] | 0.1 to 1
O=C1CC2(CCCC2)CC(=O)N[C@H](Cc2ccc(NC(=O)[C@H](Cc3ccccc3Cl)NC(=O)[C@H](O)c3ccccc3)cc2)C(=O)NCCCCCN1 [Compound 547] | 0.1 to 1
O=C1CC2(CCCC2)CC(=O)N[C@H](Cc2ccc(NC(=O)[C@H](Cc3ccccc3Cl)NC(=O)C(=O)c3ccccc3)cc2)C(=O)NCCOCCOCCN1 [Compound 548] | < 0.1
C[C@H]1NC(=O)[C@@H](Cc2ccc(NC(=O)[C@H](Cc3ccccc3Cl)NC(=O)Cc3ccc(F)cc3)cc2)NC(=O)CC2(CC2)CC(=O)NCCCCCNC1=O [Compound 554] | < 0.1
C[C@H]1NC(=O)[C@@H](Cc2ccc(NC(=O)[C@H](Cc3ccccc3Cl)NC(=O)Cc3ccc(F)cc3)cc2)NC(=O)CN(Cc2ccccc2)CC(=O)NCCCCCNC1=O [Compound 557] | 0.1 to 1
C[C@H]1NC(=O)[C@@H](Cc2ccc(NC(=O)[C@H](Cc3ccccc3Cl)NC(=O)Cc3ccc(F)cc3)cc2)NC(=O)CN(C)CC(=O)NCCCCCNC1=O [Compound 558] | < 0.1
O=C1CC2(CCCC2)CC(=O)N[C@H](Cc2ccc(NC(=O)[C@H](Cc3ccccc3Cl)NC(=O)C(F)(F)c3ccc(F)cc3)cc2)C(=O)NCCOCCOCCN1 [Compound 559] | < 0.1
C[C@H]1NC(=O)[C@@H](Cc2ccc(NC(=O)[C@H](Cc3ccccc3Cl)NC(=O)C3(c4ccc(F)cc4)CC3)cc2)NC(=O)CC2(CCCC2)CC(=O)N(C)CCN(C)CCN(C)C1=O [Compound 563] | 0.1 to 1
C[C@H]1NC(=O)[C@@H](Cc2ccc(NC(=O)[C@@H](Cc3ccccc3Cl)NC(=O)Cc3ccc(F)cc3)cc2)NC(=O)[C@@H]2CC[C@@H](C2)C(=O)NCCCCCNC1=O [Compound 564] | 0.1 to 1
CN1CCOCCOCCNC(=O)[C@@H](Cc2ccc(NC(=O)[C@H](Cc3ccccc3Cl)NC(=O)C(F)(F)c3ccccc3)cc2)NC(=O)CC2(CCCC2)CC1=O [Compound 565] | < 0.1
COC(=O)N[C@@H](Cc1ccccc1Cl)C(=O)Nc1ccc(C[C@H]2NC(=O)CC3(CCCC3)CC(=O)N(C)CCOCCOCCNC2=O)cc1 [Compound 568] | < 0.1
